These results are taken from ChEMBL document CHEMBL1201862, “PubChem BioAssay data set” (2004).

Some test systems named below: CAKI-1; PC-3; K562; KM12; LOX IMVI; A498; BT-549; A549; SF-539; HT-29; SR; IGROV-1; HOP-92; UACC-62; SF-268; MDA-MB-231; NCI-H226; SK-OV-3; ACHN; M14.
Common to all, as to assay: NCI tumour cell line growth inhibition, 48 h

The structures appear in SMILES notation.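 The compound was tested at five concentrations on cells cultured in 96-well plates, with a 48-hour exposure period. GI50 marks 50% less growth.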 The source made the active and inactive calls. Cut-off read from the data, not from the text of the source: active = GI50 up to about 1.1 µM and inactive = higher. A value given as a limit tells only on which side of the number the result lay.

Consider `c1cc(CCN2CCCCC2)ccn1`, for which the GI50 in the assay with CAKI-1, with PC-3, in the assay on K562, in the assay with KM12, in the assay on LOX IMVI and with A498 was > 100 µM (inactive) throughout. Moreover, the GI50 with BT-549 is > 100 µM (inactive); in the assay with A549, > 100 µM (inactive); in the assay on SF-539, > 100 µM (inactive); in the assay on HT-29 it was > 100 µM (inactive); in the assay on SR, 33.3 µM (inactive); with IGROV-1 it was > 100 µM (inactive). The GI50 with HOP-92, in the assay with UACC-62, in the assay on SF-268, in the assay on MDA-MB-231, in the assay with NCI-H226 and with SK-OV-3 was > 100 µM (inactive) throughout. Besides, the GI50 with ACHN and with M14 was > 100 µM (inactive) in each case.
For `COc1cc(OC)c2c(=O)c3cccc(C)c3n(C)c2c1`, the GI50 is > 100 µM (inactive) in the assay on CAKI-1; 50.9 µM (inactive) in the assay with PC-3; 25.8 µM (inactive) in the assay with K562; 80 µM (inactive) in the assay on KM12; 55.7 µM (inactive) in the assay with LOX IMVI; > 100 µM (inactive) with A498. For the same molecule, the GI50 in the assay on BT-549 was > 100 µM (inactive); with A549, 83.2 µM (inactive); in the assay on SF-539, 68.5 µM (inactive); in the assay with HT-29 it was 27.9 µM (inactive); in the assay on SR, 37 µM (inactive); in the assay on IGROV-1 it was > 100 µM (inactive). Moreover, the GI50 in the assay with HOP-92 is 83.6 µM (inactive); with UACC-62 it was 61.4 µM (inactive); in the assay with SF-268, 72.6 µM (inactive); in the assay with MDA-MB-231, > 100 µM (inactive); in the assay on NCI-H226 it was > 100 µM (inactive); in the assay with SK-OV-3, > 100 µM (inactive). For the same molecule, the GI50 is 51.3 µM (inactive) with ACHN and 44 µM (inactive) in the assay with M14.
With `NS(=O)(=O)c1ccc(NNc2c3ccccc3nc3ccccc23)cc1`, the GI50 in the assay on CAKI-1 is 13 µM (inactive); with PC-3, 11.5 µM (inactive); with K562, 7.89 µM (inactive); in the assay on KM12, 11.6 µM (inactive); with LOX IMVI it was 7.21 µM (inactive); in the assay on A498, 18.3 µM (inactive). Moreover, the GI50 was 10.3 µM (inactive) in the assay on BT-549; 15.3 µM (inactive) in the assay with A549; 12.2 µM (inactive) in the assay with SF-539; 7.73 µM (inactive) in the assay with HT-29; 10.8 µM (inactive) with SR; 11.2 µM (inactive) in the assay on IGROV-1. Further, the GI50 is 14.1 µM (inactive) with HOP-92; 12.3 µM (inactive) in the assay with UACC-62; 12.2 µM (inactive) in the assay on SF-268; 15.6 µM (inactive) in the assay with MDA-MB-231; 10.3 µM (inactive) with NCI-H226; 14.8 µM (inactive) with SK-OV-3. Besides, the GI50 in the assay with ACHN is 11.4 µM (inactive); in the assay on M14, 11.2 µM (inactive).
`C=C1C(=O)OC2/C=C(/CO)C3(O)CC(O)C(C)(CC(OC(=O)/C(C)=C/C)C12)O3` (stereo not given): the GI50 was 4.33 µM (inactive) in the assay with CAKI-1; 26.3 µM (inactive) in the assay with PC-3; 4.47 µM (inactive) in the assay with K562; 20.5 µM (inactive) with KM12; 11 µM (inactive) in the assay on LOX IMVI; 20.9 µM (inactive) with A498. Moreover, the GI50 was 4.52 µM (inactive) in the assay on BT-549; 32.8 µM (inactive) in the assay with A549; 23.9 µM (inactive) in the assay on SF-539; 8.09 µM (inactive) with HT-29; 4.57 µM (inactive) in the assay on SR; 17.2 µM (inactive) with IGROV-1. Moreover, the GI50 in the assay on HOP-92 was 9.91 µM (inactive); with UACC-62, 6.62 µM (inactive); in the assay on SF-268 it was 11 µM (inactive); in the assay with MDA-MB-231 it was 15.3 µM (inactive); in the assay on NCI-H226, 18.5 µM (inactive); with SK-OV-3, 21.4 µM (inactive). Besides, the GI50 was 6.82 µM (inactive) with ACHN and 17.7 µM (inactive) in the assay with M14.
As for `FC(F)(F)c1ccc2c(-c3cc[nH]c3)ccnc2c1`, the GI50 is 31.4 µM (inactive) with CAKI-1; 36.6 µM (inactive) in the assay on PC-3; 30 µM (inactive) in the assay with K562; 31.8 µM (inactive) in the assay on KM12; 19.4 µM (inactive) in the assay with LOX IMVI; 23.8 µM (inactive) in the assay with A498. Also, the GI50 with BT-549 was 22.6 µM (inactive); in the assay on A549, 26 µM (inactive); in the assay on SF-539 it was 37.8 µM (inactive); in the assay with HT-29 it was 21.4 µM (inactive); in the assay with SR, 27 µM (inactive); in the assay with IGROV-1 it was 39.5 µM (inactive). In addition, the GI50 with HOP-92 was 52.4 µM (inactive); with UACC-62 it was > 100 µM (inactive); in the assay with SF-268 it was > 10 µM (inactive); in the assay with MDA-MB-231, 40.1 µM (inactive); with NCI-H226, 36.9 µM (inactive); with SK-OV-3 it was > 100 µM (inactive). In addition, the GI50 was 31.8 µM (inactive) with ACHN and 34.5 µM (inactive) with M14.
Turning to `CCCCCCCCC/C=C/C=C/C(=O)NCC(=O)NC1C(O)C(O)C(Nc2ncnc3[nH]cnc23)OC1C(O)CO` (stereo not given), the GI50 with CAKI-1 was 0.00692 µM (active); in the assay with PC-3, 0.00023 µM (active); with K562 it was 0.063 µM (active); in the assay with KM12 it was 0.00263 µM (active); with LOX IMVI it was 0.00234 µM (active); in the assay on A498 it was 0.00468 µM (active). Moreover, the GI50 in the assay with BT-549 is 0.023 µM (active); in the assay with A549 it was 0.00397 µM (active); with SF-539, 0.00448 µM (active); with HT-29 it was 0.0011 µM (active); with SR, 0.0211 µM (active); in the assay on IGROV-1 it was 4.88e-05 µM (active). Moreover, the GI50 in the assay with HOP-92 is 0.00468 µM (active); in the assay with UACC-62, 0.00507 µM (active); in the assay on SF-268, 0.0143 µM (active); in the assay on MDA-MB-231 it was 0.0538 µM (active); in the assay with NCI-H226, 0.00133 µM (active); in the assay with SK-OV-3, 0.001 µM (active). Further, the GI50 was 0.00953 µM (active) in the assay with ACHN and 0.0046 µM (active) in the assay with M14.
Regarding `COC(C(=O)C(O)C(C)O)C1CC2C=C3C=C(OC4CC(OC5CC(O)C(OC)C(C)O5)C(OC(C)=O)C(C)O4)C(C)C(O)=C3C(O)=C2C(=O)C1OC1CC(OC2CC(OC3CC(C)(O)C(OC(=O)C(C)C)C(C)O3)C(O)C(C)O2)C(O)C(C)O1` (stereo not given), the GI50 in the assay with CAKI-1, in the assay with PC-3, in the assay on K562, in the assay with KM12, in the assay with LOX IMVI and in the assay with A498 was < 0.01 µM (active) throughout. Further, the GI50 with BT-549, in the assay on A549, in the assay with SF-539, in the assay with HT-29, in the assay with SR and in the assay with IGROV-1 was < 0.01 µM (active) each time. The GI50 in the assay on HOP-92, in the assay with UACC-62, with SF-268, with MDA-MB-231, in the assay with NCI-H226 and in the assay on SK-OV-3 was < 0.01 µM (active) in each case. In addition, the GI50 in the assay on ACHN and in the assay on M14 was < 0.01 µM (active) in each case.
Regarding `O=C1OC(c2ccccc2)=N/C1=C\c1ccc(N(CCCl)CCCl)cc1`, the GI50 is > 100 µM (inactive) in the assay with CAKI-1; > 86.5 µM (inactive) with PC-3; 16.5 µM (inactive) in the assay on K562; > 92.3 µM (inactive) in the assay on KM12; > 91.4 µM (inactive) in the assay with LOX IMVI; > 100 µM (inactive) in the assay with A498. For the same molecule, the GI50 is > 100 µM (inactive) with BT-549; > 100 µM (inactive) with A549; > 100 µM (inactive) in the assay with SF-539; > 100 µM (inactive) in the assay on HT-29; 11.6 µM (inactive) in the assay with SR; > 100 µM (inactive) with IGROV-1. In addition, the GI50 with HOP-92 is > 52.5 µM (inactive); in the assay with UACC-62, > 100 µM (inactive); in the assay on SF-268 it was > 88.7 µM (inactive); in the assay with MDA-MB-231 it was > 100 µM (inactive); in the assay with NCI-H226, > 100 µM (inactive); in the assay with SK-OV-3, > 100 µM (inactive). Further, the GI50 with ACHN is > 62.5 µM (inactive); in the assay on M14, > 100 µM (inactive).
In the case of `C=C1CC2(CC(c3ccccc3C)OC(c3ccccc3C)C2)OC1=O` (stereo not given), the GI50 in the assay with CAKI-1 is 1.87 µM (inactive); with PC-3 it was 2.21 µM (inactive); in the assay with K562 it was 2.15 µM (inactive); with KM12, 2.18 µM (inactive); in the assay with LOX IMVI, 1.58 µM (inactive); with A498, 8.99 µM (inactive). Also, the GI50 is 1.92 µM (inactive) with BT-549; 8.47 µM (inactive) in the assay on A549; 1.62 µM (inactive) in the assay on SF-539; 1.82 µM (inactive) with HT-29; 2.15 µM (inactive) in the assay on SR; 1.69 µM (inactive) in the assay on IGROV-1. Also, the GI50 in the assay on HOP-92 is 1.76 µM (inactive); with UACC-62, 1.54 µM (inactive); in the assay on SF-268, 1.83 µM (inactive); in the assay on MDA-MB-231, 1.6 µM (inactive); with NCI-H226, 7.78 µM (inactive); in the assay with SK-OV-3, 11.6 µM (inactive). In addition, the results for the GI50 in the assay on ACHN and with M14 were 2.36 µM (inactive) and 1.59 µM (inactive), respectively.
With `CC1C(=O)OC2CC[N+]3([O-])CC=C(COC(=O)C(C)(O)C1(C)O)C23` (stereo not given), the GI50 in the assay on CAKI-1, in the assay on PC-3, with K562, in the assay with KM12, in the assay with LOX IMVI and in the assay with A498 was > 100 µM (inactive) throughout. Moreover, the GI50 with BT-549 was > 100 µM (inactive); in the assay on A549, > 100 µM (inactive); with SF-539 it was > 100 µM (inactive); in the assay on HT-29, > 100 µM (inactive); in the assay on SR, 95.7 µM (inactive); with IGROV-1 it was > 100 µM (inactive). Moreover, the GI50 with HOP-92, in the assay with UACC-62, in the assay on SF-268, in the assay on MDA-MB-231, in the assay with NCI-H226 and in the assay with SK-OV-3 was > 100 µM (inactive) each time. The GI50 with ACHN and in the assay on M14 was > 100 µM (inactive) each time.
